Test results: ChEMBL document CHEMBL3414510 (J Med Chem, 2015)

Columns and labels:
[1] = test system: Liver; assay: Metabolic stability in CD1 mouse liver microsomes after 30 mins by LC/MS analysis; type: ADME; conditions: 0.5 h
[2] = Permeability across human Caco2 cells; type: ADME, cell-based; conditions: caco-2
[3] = test system: Mus musculus; assay: Clearance in Balb/C mouse at 5 mg/kg, iv and po relative to liver blood flow; type: ADME, organism-based; parameters: dose 5 mg/kg, route oral; conditions: in vivo

## Cn1cc(CCn2cnc(-c3cnn(C)c3)c2-c2ccc(C#N)cc2)cn1
[1]
  Stability: Stable
[2]
  permeability: permeable
[3]
  CL: 50%
